Results reported in patent US9867798B2, “Ladostigil therapy for immunomodulation” (priority 2012, dated 2018).

Legend:
ChE = experiment: Cholinesterase inhibition in plasma and spleen of LPS injected mice (Example 5); assay type: in vivo, Balb-C mice; conditions: for Inhibition of ChE, plasma / Inhibition of ChE, spleen: 60 min after oral administration, LPS injected mice
Description: (§1) In experiments on the effect of chronic treatment with ladostigil on ChE activity in mice drinking DSS, the spleen was rapidly removed as described above, together with a colon segment of about 0.5 cm in length taken from the proximal area. Spleen and colon segments were washed in cold phosphate buffered saline (PBS) before they were frozen at −80° C. For assay, the tissue was unfrozen and weighed and PBS was added to each tissue at a ratio of 1 mg tissue to 1 ml. Tissues were homogenized at a speed of 24,000 rpm in cold phosphate buffer pH 7 containing 0.1% Triton and centrifuged at 14000 rpm. Aliquots of plasma and the supernatant from the spleen and colon were incubated with acetylthiocholine and dinitro benzoic acid in phosphate buffer pH 7 and the rate of development of the yellow color was measured as described by Ellman et al, (1961). Percent inhibition of ChE activity was calculated by comparison with that of control mice given water by gavage. Protein concentration was determined by means of by Pierce BCA Protein Assay Kit (Thermo Scientific, USA) according to the manufacturer's instructions. It is noted, that ChE activity in the colon and spleen of mice is attributed mainly to that of AChE while that in mouse plasma is mainly attributable to BuChE.
For the LPS experiment involving a single administration, ladostigil (10 or 20 mg/kg) in a volume of 1 ml/100 g or water (1 ml/100 g) were given by gavage to groups of 6-8 Balb-C male mice weighing 24-30 g and LPS as described above. […] Blood was taken into heparinized tubes and centrifuged at 14000 rpm at room temperature for 4 min to provide plasma and the spleen was rapidly removed, weighed, frozen in liquid nitrogen and stored at −80° C. until assayed. It is noted, that ChE inhibition in mouse plasma is mainly attributed to BuChE activity, and in mouse spleen—mainly to AChE activity.
Percent inhibition of ChE activity was calculated by comparison with that of control mice given water by gavage as described in Example 1 above.

[1] = tested on: LPS-induced TNF-α, IL-1β and IL-6 in spleen; experiment: Cytokines in spleen of mice injected with LPS, comparison to rivastigmine (Example 5); assay type: in vivo, Balb/c mice; conditions: for IL-1β in spleen / IL-6 in spleen / TNF-α in spleen: four hours
Description: Male Balb/c mice (aged 8-9 weeks, weighing 25-30 gm) were given ladostigil (10 or 20 mg/kg) or rivastigmine (0.5 or 1 mg/kg) by gavage, or water (1 ml/100 g), followed 15 min later by an intra-peritoneal injection of LPS (10 mg/kg). Control mice were given LPS and water by gavage (1 ml/100 g). For measurement of cytokine levels in the spleen and blood the mice were sacrificed 4 h after drug administration, blood collected in heparinized tubes and centrifuged to obtain plasma and the spleen was rapidly removed and weighed. Plasma and spleen were frozen in liquid nitrogen and stored at −80° C. until use. For measurement of cytokine levels, the tissue was diluted in PBS containing 0.8% NaCl, 0.144% NaHPO4, 0.024% KH2PO4 and protease inhibitor cocktail (Sigma Israel, P8340) and homogenized in an Ultra-TURRAX® homogenizer at a speed of 24,000 rpm, centrifuged at 14000 g for 15 min at 4° C. Cytokines were detected in the supernatant by using ELISA kits for cytokines IL-1β, IL-6, and TNF-α (Biolegend) following the manufacturer's protocol. Each experiment was performed twice with 8 replicate measures in each experiment. Protein concentration in each sample was determined with Bradford reagent (Bio-RAD, 500-0006).

[2] = tested on: mice with DSS-induced colitis; experiment: Acute colitis induced by DSS in mice: body weight, stool, bleeding, DAI, colon length; assay type: in vivo, BALB/c OlaHsd mice
Description: (§2) BALB/c OlaHsd male mice aged 8-9 weeks and weighing 25-30 g were purchased from Harlan (Jerusalem, Israel) and housed in standard cages of up to 5 per cage in the pathogen free Animal Facility of the Institute for Drug Research. All experiments were performed in accordance with the Principles of Laboratory Animal Care (NIH publication #85-23, revised 1985) protocols MD-09-12197-4. Acute colitis was induced in mice by administration of 5% DSS solution (M.Wt.=[…], MP Biomedicals, LLC, Solon, Ohio, USA) in water for 8 days. The DSS solution was freshly prepared every day. Mice were provided with food and water or DSS solution ad libitum during the experiment. They were divided into groups of 10 as follows: Vehicle control group: mice drank water and were given water (1 ml/100 gm) once daily by gavage for 8 days; Drug control group: mice drank water and were given ladostigil (10 mg/kg) by gavage once daily for 8 days. DSS untreated group: mice drank 5% DSS for 7 days and water on the 8th day and were given water (1 ml/100 g) once daily by gavage for 8 days. Drug treated group: mice drank 5% DSS followed by water as above and were given ladostigil (5 or 10 mg/kg) by gavage once daily for 8 days. The volume of 5% DSS solution consumed was measured for each group of mice and the average volume/mouse was calculated. On the eighth day, the mice were anesthetized by CO2 and sacrificed by cervical dislocation 2 h after the last dose of ladostigil. Samples of colon and spleen were taken for measurement of cytokines MPO, cytokines and ChE activity.
Body weight, stool consistency and the presence of blood in the stools was recorded daily for each mouse. […] The score ranged between 0-4 for all three parameters and was composed as follows: Weight loss: none=0, 1-5%=1, 5-10%=2, 10-20%=3, >20%=4. Percent of weight loss on days 7 and 8 relative to the first day was calculated for all the groups. […] Bleeding: none=0, hemoccult=2, gross bleeding=4. The maximum DAI score was 4 based on a combination of scores of weight loss (relative to that on the first day of the experiment), stool consistency and bleeding, divided by 3. After sacrifice the length of the colon segment from the cecum to the rectum was measured.

[3] = tested on: cholinesterase (AChE and BuChE); experiment: Cholinesterase activity in spleen and colon of mice drinking DSS (Ellman); assay type: in vivo; conditions: rivastigmine 1 mg/kg/day
Description: as §2, §1

[4] = rivastigmine 0.5 mg/kg + LPS 10 mg/kg
[5] = rivastigmine 1 mg/kg + LPS 10 mg/kg

**Q.** Which “Inhibition of ChE, plasma” value (ChE; rivastigmine 0.5 mg/kg) does the source give for `CCN(C)C(=O)Oc1cccc([C@H](C)N(C)C)c1` [Rivastigmine, reference compound] here?
**A.** 28 ± 4.5 %

**Q.** And the “Inhibition of ChE, spleen” value (ChE; rivastigmine 0.5 mg/kg)?
**A.** 32.6 ± 5.6 %

**Q.** And the “Inhibition of ChE in plasma and spleen, compared with rivastigmine 0.5 mg/kg” value (ChE; rivastigmine 1 mg/kg)?
**A.** about twice as much

**Q.** And the “Inhibition of ChE, plasma” value (ChE; rivastigmine 1 mg/kg)?
**A.** 56.8 ± 6.1 %

**Q.** And the “Inhibition of ChE, spleen” value (ChE; rivastigmine 1 mg/kg)?
**A.** 65.8 ± 3.2 %

**Q.** What about the “Effect on levels of the three cytokines in spleen” value ([1]; rivastigmine 0.5 mg/kg + LPS) of the same compound?
**A.** had no effect on levels of any of the three cytokines

**Q.** And the IL-1β in spleen [1, 4]?
**A.** 551 ± 31 pg/mg

**Q.** What about the IL-6 in spleen [1, 4] of the same compound?
**A.** 569 ± 89 pg/mg

**Q.** And the TNF-α in spleen [1, 4]?
**A.** 16.8 ± 2.5 pg/mg

**Q.** And the “Effect on cytokine levels in spleen” value ([1]; rivastigmine 1 mg/kg + LPS)?
**A.** significantly reduced IL-1β and IL-6, but not of TNF-α

**Q.** And the IL-1β in spleen [1, 5]?
**A.** 440 ± 40 pg/mg

**Q.** And the IL-6 in spleen [1, 5]?
**A.** 462 ± 66 pg/mg

**Q.** And the TNF-α in spleen [1, 5]?
**A.** 16.5 ± 2.2 pg/mg

**Q.** What about the “Prevention of weight loss induced by DSS” value ([2]; 5% DSS, rivastigmine) of the same compound?
**A.** did not prevent the weight loss

**Q.** What about the Body weight decrease ([2]; mice given 1 mg/kg/day) of the same compound?
**A.** 4.7%

**Q.** What about the “Inhibition of colonic ChE” value [3] of the same compound?
**A.** > 60%
